Source: patent publication US10392383B2, “3-(1H-benzo[d]imidazol-2-yl)-1H-pyrazolo[4,3-b]pyridines and therapeutic uses thereof” (Samumed, LLC, priority 2015, dated 2019)

Columns and labels:
Assay type in all cases: cell-based
[1] = system: IL-6 (THP-1 cells); test: IL-6 inhibition in LPS-stimulated THP-1 monocytes (HTRF); details: Homo sapiens, IL-6 HTRF; for EC50: 500 ng/mL LPS, Table 6; for inhibition at 10 µM: LPS, Table 6, read-out: percent inhibition at 10 μM (given in parentheses for EC50 >10 μM)
Method: Human Monocyte Cell Culture: Human monocyte cell line (THP-1 cells; Catalog # TIB-202, ATCC, Manassas, Va.) were cultured in Roswell Park Memorial Institute (RPMI) 1640 Medium (Catalog #21870-100, Buffalo, N.Y.) with 1% L-glutamine, 1% HEPES, 1% Sodium Pyruvate, 2% Sodium Bicarbonate supplemented with 100 units/mL penicillin, 50 μg/mL streptomycin, 2-mercaptoethanol (0.05 mM) [basal medium] and 10% fetal bovine serum (Catalog #16140089, Life Technologies, Carlsbad, Calif.) at 37° C. and 5% CO2.
Compound Screening: THP-1 cells were cultured in basal media with 1% FBS for 24 hours before the start of the assay. Each compound was dissolved in DMSO as a 10 mM stock and used to prepare compound source plates. Serial dilution (1:3, 10-point dose-response curves starting from 10 μM) and compound transfer was performed using the ECHO 550 (Labcyte, Sunnyvale, Calif.) into 384-well white low volume assay plates (Greiner Bio-One) with appropriate DMSO backfill for a final DMSO concentration of 0.1%. THP-1 cells were plated at 5000 cells/well in the 384-well plates and incubated at 37° C. for 2 h. 500 ng/mL of LPS was added after 2 hours and cells were incubated for another 22 hours at 37° C. Plates were spun in a centrifuge for 1 minute at […] and a mixture of anti-IL6 XL665, and anti-IL6 Cryptate diluted in reconstitution buffer (Cisbio Inc.) was added to each well. Following incubation for 3 hrs at room temperature, Homogeneous Time-Resolved Fluorescence (HTRF) was measured using the Envision (Perkin Elmer) at 665 nm and […]. The ratio of fluorescence at 665 nm to 620 nm was used as a readout for IL6 quantification. All samples were processed in duplicate. Readings were normalized to DMSO treated cells and normalized activities were utilized for EC50 calculations using the dose-response log (inhibitor) vs. response-variable slope (four parameters) nonlinear regression feature available in GraphPad Prism 5.0 (or Dotmatics). For EC50 of >10 μM, the percent inhibition at 10 μM is provided.

[2] = system: Wnt activity (Sp5-Luc reporter, Wnt-responsive promoter) in SW480 colon carcinoma cells; test: Wnt activity screening assay: Sp5-Luc reporter gene assay in SW480 cells; details: Homo sapiens; for inhibition at 10 µM: read-out: percent inhibition at 10 μM (given for EC50 of >10 μM); for EC50: overnight incubation, 10-point curve starting from 10 μM
Description: The screening assay for Wnt activity is described as follows. Reporter cell lines can be generated by stably transducing cancer cell lines (e.g., colon cancer) or primary cells (e.g., IEC-6 intestinal cells) with a lentiviral construct that includes a Wnt-responsive promoter driving expression of the firefly luciferase gene.
SW480 colon carcinoma cells were transduced with a lentiviral vector expressing luciferase with a human Sp5 promoter consisting of a sequence of eight TCF/LEF binding sites. SW480 cells stably expressing the Sp5-Luc reporter gene and a hygromycin resistance gene were selected by treatment with 150 μg/mL of hygromycin for 7 days. These stably transduced SW480 cells were expanded in cell culture and used for all further screening activities. Each compound was dissolved in DMSO as a 10 mM stock and used to prepare compound source plates. Serial dilution (1:3, 10-point dose-response curves starting from 10 μM) and compound transfer was performed using the ECHO 550 (Labcyte, Sunnyvale, Calif.) into 384-well white solid bottom assay plates (Greiner Bio-One) with appropriate DMSO backfill for a final DMSO concentration of 0.1%. For Sp5-Luc reporter gene assays, the cells were plated at 4,000 cells/well in 384-well plates with medium containing 1% fetal bovine serum and incubated overnight at 37° C. and 5% CO2. Following incubation, 20 μl of BrightGlo luminescence reagent (Promega) was added to each well of the 384-well assay plates. The plates were placed on an orbital shaker for 2 min and then luminescence was quantified using the Envision (Perkin Elmer) plate reader. Readings were normalized to DMSO only treated cells, and normalized activities were utilized for EC50 calculations using the dose-response log (inhibitor) vs. response-variable slope (four parameters) nonlinear regression feature available in GraphPad Prism 5.0 (or Dotmatics). For EC50 of >10 μM, the percent inhibition at 10 μM is provided.

[3] = system: SW480 colon cancer cells; test: Cell viability assay (CellTiter-Blue) in SW480 cells; details: Homo sapiens, 96 h, four days; for EC50: CellTiter-Blue, 10 μM to 0.0045 μM; for inhibition at 10 µM: read-out: percent inhibition at 10 μM (given for EC50 of >10 μM)
Method: Representative compounds were screened using the following assay procedure to assess the effect on cell viability as described below.
Each compound was dissolved in DMSO as a 10 mM stock and used to prepare compound source plates. Serial dilution (1:3, 8-point dose-response curves from 10 μM to 0.0045 μM) and compound transfer was performed using the ECHO 550 (Labcyte, Sunnyvale, Calif.) into 96-well clear bottom, black-walled plates (Corning-Costar).
Approximately 2×10^3 SW480 colon cancer cells were seeded into each well and allowed to incubate in the presence or absence of compound for four days at 37° C./5% CO2. Eight replicates of DMSO-treated cells served as controls and cells treated with compound were performed in duplicate.
After incubation, 20 μL of CellTiter-Blue (Promega) was added to each well allowed to incubate for approximately 3 hours. This reagent was a buffered solution which contains resazurin, metabolically active cells were able to reduce rezarurin (blue) into resorufin (pink) which was highly fluorescent. This measured fluorescence was used as a readout for cell viability.
After incubation, the plates were read at Ex 560 nm Em 590 nm (Cytation 3, BioTek). Dose-response curves were generated and EC50 concentration values were calculated using non-linear regression curve fit in the GraphPad Prism (San Diego, Calif.) or Dotmatics' Studies Software (Bishops Stortford, UK). For EC50 of >10 μM, the percent inhibition at 10 μM is provided.

| SMILES | EC50 [1] [µM] | inhibition at 10 µM [1] [%] | inhibition at 10 µM [2] [%] | EC50 [2] [µM] | EC50 [3] [µM] | inhibition at 10 µM [3] [%] |
| --- | --- | --- | --- | --- | --- | --- |
| O=C(Cc1ccccc1)Nc1cncc(-c2ccc3[nH]nc(-c4nc5c(-c6ccncc6)cccc5[nH]4)c3n2)c1 [Compound 122, 2-Phenyl-N-(5-(3-(4-(pyridin-4-yl)-1H-benzo[d]imidazol-2-yl)-1H-pyrazolo [4,3-b]pyridin-5-yl)pyridin-3-yl)acetamide] | > 10 | 40.3 | 44.4 | > 10 | 1.45 |  |
| CCCC(=O)Nc1cncc(-c2ccc3[nH]nc(-c4nc5c(-c6ccncc6)cccc5[nH]4)c3n2)c1 [Compound 129, N-(5-(3-(4-(Pyridin-4-yl)-1H-benzo[d]imidazol-2-yl)-1H-pyrazolo[4,3-b]pyridin-5-yl)pyridin-3-yl)butyramide] | > 10 | 34.9 | 0 | > 10 | > 10 | 0 |
| c1cc(-c2ccncc2)c2nc(-c3n[nH]c4ccc(-c5ccncc5)nc34)[nH]c2c1 [Compound 130, 5-(Pyridin-4-yl)-3-(4-(pyridin-4-yl)-1H-benzo[d]imidazol-2-yl)-1H-pyrazolo [4,3-b]pyridine] | > 10 | 48.7 | 39.7 | > 10 | > 10 | 23.4 |
| O=C(Nc1cncc(-c2ccc3[nH]nc(-c4nc5c(-c6ccncc6)cccc5[nH]4)c3n2)c1)C1CCCCC1 [Compound 135, N-(5-(3-(4-(pyridin-4-yl)-1H-benzo[d]imidazol-2-yl)-1H-pyrazolo[4,3-b]pyridin-5-yl)pyridin-3-yl)cyclohexanecarboxamide] | > 10 | 32.4 | 5.4 | > 10 | > 10 | 1 |
| CCNCc1cncc(-c2ccc3[nH]nc(-c4nc5c(-c6ccccn6)cccc5[nH]4)c3n2)c1 [Compound 146, N-((5-(3-(4-(Pyridin-2-yl)-1H-benzo[d]imidazol-2-yl)-1H-pyrazolo[4,3-b]pyridin-5-yl)pyridin-3-yl)methyl)ethanamine] | > 10 | 19.5 | 41.6 | > 10 | 1.56 |  |
| O=C(Nc1cncc(-c2ccc3[nH]nc(-c4nc5c(-c6ccccn6)cccc5[nH]4)c3n2)c1)c1ccccc1 [Compound 151, N-(5-(3-(4-(Pyridin-2-yl)-1H-benzo[d]imidazol-2-yl)-1H-pyrazolo[4,3-b]pyridin-5-yl)pyridin-3-yl)benzamide] | > 10 | 22 | 34.2 | > 10 | > 10 | 20.8 |
| CCCCC(=O)Nc1cncc(-c2ccc3[nH]nc(-c4nc5c(-c6ccccn6)cccc5[nH]4)c3n2)c1 [Compound 159, N-(5-(3-(4-(Pyridin-2-yl)-1H-benzo[d]imidazol-2-yl)-1H-pyrazolo[4,3-b]pyridin-5-yl)pyridin-3-yl)pentanamide] | > 10 | 26.6 | 11.3 | > 10 | > 10 | 11 |
| CCC(=O)Nc1cncc(-c2ccc3[nH]nc(-c4nc5c(N6CCCCC6)cccc5[nH]4)c3n2)c1 [Compound 169, N-(5-(3-(4-(Piperidin-1-yl)-1H-benzo[d]imidazol-2-yl)-1H-pyrazolo[4,3-b]pyridin-5-yl)pyridin-3-yl)propionamide] | 0.161 |  |  | 3.79 | > 10 | 41.4 |
| CN(C)c1cncc(-c2ccc3[nH]nc(-c4nc5c(N6CCCCC6)cccc5[nH]4)c3n2)c1 [Compound 175, N,N-dimethyl-5-(3-(4-(piperidin-1-yl)-1H-benzo[d]imidazol-2-yl)-1H-pyrazolo[4,3-b]pyridin-5-yl)pyridin-3-amine] | 2.97 |  |  | 2.13 | 6.08 |  |
| CN(C)Cc1cncc(-c2ccc3[nH]nc(-c4nc5c(N6CCCCC6)cccc5[nH]4)c3n2)c1 [Compound 181, N,N-dimethyl-1-(5-(3-(4-(piperidin-1-yl)-1H-benzo[d]imidazol-2-yl)-1H-pyrazolo[4,3-b]pyridin-5-yl)pyridin-3-yl)methanamine] | 4.94 |  |  | 1.89 | 1.14 |  |
| CN1CCN(c2cccc3[nH]c(-c4n[nH]c5ccc(-c6cncc(N)c6)nc45)nc23)CC1 [Compound 227, 5-(3-(4-(4-Methylpiperazin-1-yl)-1H-benzo[d]imidazol-2-yl)-1H-pyrazolo [4,3-b]pyridin-5-yl)pyridin-3-amine] | 8.32 |  | 48.8 | > 10 | > 10 | 18.4 |
| CC(C)C(=O)Nc1cncc(-c2ccc3[nH]nc(-c4nc5c(N6CCN(C)CC6)cccc5[nH]4)c3n2)c1 [Compound 233, N-(5-(3-(4-(4-Methylpiperazin-1-yl)-1H-benzo[d]imidazol-2-yl)-1H-pyrazolo[4,3-b]pyridin-5-yl)pyridin-3-yl)isobutyramide] | > 10 | 42.9 | 7.3 | > 10 | > 10 | 6.4 |
| CN1CCN(c2cccc3[nH]c(-c4n[nH]c5ccc(-c6cncnc6)nc45)nc23)CC1 [Compound 251, 3-(4-(4-Methylpiperazin-1-yl)-1H-benzo[d]imidazol-2-yl)-5-(pyrimidin-5-yl)-1H-pyrazolo[4,3-b]pyridine] | 2.23 |  | 4.7 | > 10 | > 10 | 0 |
| O=C(Cc1ccccc1)Nc1cncc(-c2ccc3[nH]nc(-c4nc5ccccc5[nH]4)c3n2)c1 [Compound 262, N-(5-(3-(1H-Benzo[d]imidazol-2-yl)-1H-pyrazolo[4,3-b]pyridin-5-yl)pyridin-3-yl)-2-phenylacetamide] | 1.09 |  | 11.2 | > 10 | > 10 | 13.9 |
